Test results as given in US6326390A (King Pharmaceuticals Reseach and Development, Inc., priority 1999, dated 2001).
Like-named read-outs stand apart in the source and are kept apart here.

What was measured:
HL 60 cell line = assay: [^125 I]-ABMECA binding on cell membranes of tumor cell lines: HL 60; parameters: species or system human
Protocol: (§1) A series of binding experiments were performed on various tumor cell lines, using […] [^125 I]-ABMECA, with unspecific binding determined in the presence of 50 μM R-PIA or 200 μM NECA, on cell membranes of the cell lines. Specific binding was determined by substracting unspecific binding from total binding. The cell lines were the HL 60, NB4, SKN-MC, SKN-Be2C, SKN-SH and JURKAT cell lines.

NB4 cell line = assay: [^125 I]-ABMECA binding on cell membranes of tumor cell lines: NB4
Protocol: as §1

SKN-MC cell line = assay: [^125 I]-ABMECA binding on cell membranes of tumor cell lines: SKN-MC
Protocol: as §1

SKN-Be2C cell line = assay: [^125 I]-ABMECA binding on cell membranes of tumor cell lines: SKN-Be2C
Protocol: as §1

SKN-SH cell line = assay: [^125 I]-ABMECA binding on cell membranes of tumor cell lines: SKN-SH
Protocol: as §1

JURKAT cell line = assay: [^125 I]-ABMECA binding on cell membranes of tumor cell lines: JURKAT; parameters: species or system human
Protocol: as §1

[1] = target: T1, human A3 receptors expressed in HEK 293 cells (Homo sapiens, UniProt P0DMS8); details: saturation, n=3
T1 sequence (P0DMS8 1-318): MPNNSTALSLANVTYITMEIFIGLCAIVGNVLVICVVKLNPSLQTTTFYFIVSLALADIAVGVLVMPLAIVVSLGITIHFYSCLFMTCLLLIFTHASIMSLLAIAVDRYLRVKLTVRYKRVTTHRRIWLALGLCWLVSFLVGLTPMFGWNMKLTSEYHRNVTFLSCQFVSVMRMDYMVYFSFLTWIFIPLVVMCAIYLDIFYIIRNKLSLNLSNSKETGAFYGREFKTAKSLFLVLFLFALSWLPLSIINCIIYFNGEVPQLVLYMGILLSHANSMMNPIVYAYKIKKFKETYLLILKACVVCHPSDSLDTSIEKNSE
Protocol: Incubation time was 60 min at 37° C., according to the results of previous time-course experiments. Bound and free radioactivity were separated by filtering the assay mixture through Whatman GF/B glass-fiber filters using a Brandel cell harvester. Non-specific binding was defined as binding in the presence of 50 μM R-PIA and was about 30% of total binding. The incubation mixture was diluted with 3 ml of ice-cold incubation buffer, rapidly vacuum filtered and the filter was washed three times with 3 ml of incubation buffer. The filter bound radioactivity was counted in a Beckman gamma 5500B γ counter. The protein concentration can be determined according to a Bio-Rad method (3) with bovine albumin as reference standard.
Non-specific binding was defined in the presence of 50 μM R-PIA and was about 30% of total binding. Incubation time was 60 min at 37° C., according to the results of previous time-course experiments. Bound and free radioactivity was separated by filtering the assay mixture through Whatman GF/B glass-fiber filters using a Brandel cell harvester.

[2] = target: T2, human A3 receptors expressed in the JURKAT cell line (Homo sapiens, UniProt P0DMS8); details: Jurkat cell membranes, [^125 I]AB-MECA
T2 sequence (P0DMS8 1-318): T1 sequence (P0DMS8 1-318)
Protocol: Jurkat cell lines appeared to provide the best results of the cell lines tested. A saturation experiment was performed using Jurkat cell lines at 37° C., with a one hour incubation period, using [^125 I]-ABMECA (0.125-1.5 nM), with nonspecific binding measured using RPIA (50 μM).

cerebral ischemia = details: chronic administration; cited from earlier work
[3] = target: T3, rat brain A1 adenosine receptor (Rattus norvegicus, UniProt P25099); assay: Rat A1 adenosine receptor binding assay, displacement of [^3 H]CHA; details: rat brain membranes, [^3 H]CHA 1 nM; read-out: rA1 (Ki)
T3 construct: membranes of rat brain; from tissue; host or cells: whole brain membranes of male Wistar rats
T3 sequence (P25099 1-326): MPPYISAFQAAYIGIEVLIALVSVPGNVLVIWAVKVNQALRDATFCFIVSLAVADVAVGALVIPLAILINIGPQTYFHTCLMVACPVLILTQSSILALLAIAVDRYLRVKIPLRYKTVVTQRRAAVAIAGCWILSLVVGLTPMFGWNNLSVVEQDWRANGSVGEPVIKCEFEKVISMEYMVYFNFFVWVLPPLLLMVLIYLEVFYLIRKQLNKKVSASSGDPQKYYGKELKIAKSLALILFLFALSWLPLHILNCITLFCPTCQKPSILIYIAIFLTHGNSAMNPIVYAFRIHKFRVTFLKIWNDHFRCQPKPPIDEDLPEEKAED
Protocol: Male Wistar rats (200-250 g) were decapitated and the whole brain and striatum dissected on ice. […] After 30 min incubation at 37° C., the membranes were centrifuged and pellets were stored at -80° C. Prior to freezing, an aliquot of homogenate was removed for protein assay with bovine albumin as reference standard. Binding assays were performed on rat brain and striatum membranes respectively, in the presence of 10 mM MgCl2 at 25° C. All buffer solutions were adjusted to maintain a constant pH of 7.4.
Separation of bound from free radio ligand was performed by rapid filtration through Whatman GF/B filters which were washed three times with ice-cold buffer. Filter bound radioactivity was measured by scintillation spectrometry after addition of 5 mL of Aquassure. […] Incubation time ranged from 150 min. at 0° C. to 75 min at 30° C. according to the results of previous time-course experiments. Ki values were calculated from the Cheng-Prusoff equation. All binding data were analyzed using the nonlinear regression curve-fitting computer program LIGAND.

[4] = target: T4, adenosine A3 receptors in Jurkat cell membranes (Homo sapiens, UniProt P0DMS8); assay: Saturation of Compound 1 binding to A3 receptors in Jurkat cell membranes
T4 construct: characterization of A3 receptors in some human tumor cell lines; endogenous in cells; host or cells: Jurkat (human T-cell leukaemia), membranes
T4 sequence (P0DMS8 1-318): T1 sequence (P0DMS8 1-318)

[5] = target: T5, adenosine A3 receptors in HL60 membranes (Homo sapiens, UniProt P0DMS8); assay: Saturation of Compound 1 binding to A3 receptors in HL60 membranes
T5 construct: characterization of A3 receptors in some human tumor cell lines; endogenous in cells; host or cells: HL60 (human promyelocytic leukaemia), membranes
T5 sequence (P0DMS8 1-318): T1 sequence (P0DMS8 1-318)

CNC(=O)[C@H]1O[C@@H](n2cnc3c(NCc4ccc(N)c([125I])c4)ncnc32)[C@H](O)[C@@H]1O [[^125 I]AB-MECA, N^6-(4-amino-3-iodobenzyl)-5'-(N-methylcarbamoyl)adenosine]
Percent Specific Binding (HL 60 cell line; HL 60): 20% | Unspecific Binding (HL 60 cell line; HL 60, 50 μM R-PIA or 200 μM NECA): 2791 | Specific Binding (HL 60 cell line; HL 60, total minus unspecific): 693 cpm | Total Binding (HL 60 cell line; HL 60 cell membranes): 3484 | Percent Specific Binding (NB4 cell line; NB4): 19% | Unspecific Binding (NB4 cell line; NB4, 50 μM R-PIA or 200 μM NECA): 2740 | Specific Binding (NB4 cell line; NB4, total minus unspecific): 637 cpm | Total Binding (NB4 cell line; NB4 cell membranes): 3377 | Percent Specific Binding (SKN-MC cell line; SKN-MC): 17% | Total Binding (SKN-MC cell line; SKN-MC cell membranes): 7528 | Unspecific Binding (SKN-MC cell line; SKN-MC, 50 μM R-PIA or 200 μM NECA): 6220 | Specific Binding (SKN-MC cell line; SKN-MC, total minus unspecific): 1308 cpm | Percent Specific Binding (SKN-Be2C cell line; SKN-Be2C): 24% | Total Binding (SKN-Be2C cell line; SKN-Be2C cell membranes): 6000 | Unspecific Binding (SKN-Be2C cell line; SKN-Be2C, 50 μM R-PIA or 200 μM NECA): 4585 | Specific Binding (SKN-Be2C cell line; SKN-Be2C, total minus unspecific): 1415 cpm | Percent Specific Binding (SKN-SH cell line; SKN-SH): 3% | Total Binding (SKN-SH cell line; SKN-SH cell membranes): 2671 | Unspecific Binding (SKN-SH cell line; SKN-SH, 50 μM R-PIA or 200 μM NECA): 2580 | Specific Binding (SKN-SH cell line; SKN-SH, total minus unspecific): 91 cpm | Percent Specific Binding (JURKAT cell line; JURKAT): 38% | Total Binding (JURKAT cell line; JURKAT cell membranes): 7599 | Unspecific Binding (JURKAT cell line; JURKAT, 50 μM R-PIA or 200 μM NECA): 4753 | Specific Binding (JURKAT cell line; JURKAT, total minus unspecific): 2846 cpm | Bmax value [1]: 62±1 fmol/mg protein | Bmax (density of A3 receptor) [2]: approximately 300 fmol/mg protein | Bmax (density of A3 receptor) ([2]; listed as [^125 I]-ABMECA): 290 fmol/mg protein

CNC(=O)[C@H]1O[C@@H](n2cnc3c(NCc4cccc(I)c4)ncnc32)[C@H](O)[C@@H]1O [IB-MECA]
protection against cerebral ischemia (cerebral ischemia): protects against cerebral ischemia

CCCn1cc2c(nc(NC(=O)Nc3ccc(OC)cc3)n3nc(-c4ccco4)nc23)n1 [Compound 1, 5-[[(4-Methoxyphenyl)amino]carbonyl]amino-8-propyl-2-(2-furyl)-pyrazolo[4,3-e] 1,2,4-triazolo[1,5-c]pyrimidine]
Ki [3]: > 10 µM | density of adenosine A3 receptors detected ([4]; Jurkat cells, tritiated analogue of Compound 1): approximately 1300 fmol/mg protein | Bmax value ([4]; Jurkat membranes, 0.2 to 15 nM, n=3): 1.30±0.03 pmol/mg protein | density of adenosine A3 receptors detected ([5]; HL60 cells, tritiated analogue of Compound 1): ~650 fmol/mg protein | Bmax value ([5]; HL60 membranes, 0.1 to 10 nM, n=3): 626±42 fmol/mg protein
